Data: patent US10988478B1, “Pyrazolo[1,5a]pyrimidine derivatives as IRAK4 modulators” (Genentech, Inc., priority 2015, dated 2021)

Biological target: human IRAK4 (Homo sapiens (Human), UniProt Q9NWZ3)
Assay: IRAK4 kinase inhibition, Transcreener fluorescence polarization ADP assay
Format: biochemical
Conditions: recombinant full-length His6-IRAK4; 125 uM ATP; 90 min; Ki computed using ATP Km 642 uM
Procedure: Compounds were assayed for inhibition of human IRAK4 and IRAK1 catalytic activity using recombinant enzyme produced from insect cells. Full-length IRAK4 protein, carrying an N-terminal His6-Tag, was obtained from Life Technologies (Carlsbad, Calif., USA). The IRAK1 construct was produced internally and was comprised of IRAK1 residues Arg194 to Ser712, preceded by an NH2-terminal His6 tag and the coding sequence for glutathione-S-transferase.

Sequence of human IRAK4 (Q9NWZ3 whole entry): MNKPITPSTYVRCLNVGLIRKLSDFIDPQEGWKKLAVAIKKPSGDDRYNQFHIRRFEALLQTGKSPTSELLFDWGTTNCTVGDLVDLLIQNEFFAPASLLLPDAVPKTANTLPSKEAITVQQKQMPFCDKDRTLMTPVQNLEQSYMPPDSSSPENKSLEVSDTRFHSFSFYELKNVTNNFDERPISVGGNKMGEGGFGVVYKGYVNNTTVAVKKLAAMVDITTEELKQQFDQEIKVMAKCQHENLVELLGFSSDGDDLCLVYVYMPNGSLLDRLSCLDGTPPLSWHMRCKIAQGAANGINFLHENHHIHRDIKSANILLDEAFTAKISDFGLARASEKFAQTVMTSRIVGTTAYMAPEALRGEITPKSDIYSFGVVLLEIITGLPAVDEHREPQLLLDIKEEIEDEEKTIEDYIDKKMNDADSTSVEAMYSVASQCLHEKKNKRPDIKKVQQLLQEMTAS

Row | Ki [nM] | Structure (SMILES)
1 | 260 | Cc1nccc(C2CCN(c3cc4c(cc3NC(=O)c3cnn5cccnc35)CC(C)(C)O4)C2)n1 (stereo not shown) [Example 229, N-(2,2-Dimethyl-6-(3-(2-methylpyrimidin-4-yl)pyrrolidin-1-yl)-2,3-dihydrobenzofuran-5-yl)pyrazolo[1,5-a]pyrimidine-3-carboxamide]
2 | 31 | CC1(COc2cc3c(cc2NC(=O)c2cnn4cccnc24)CC(C)(C)O3)COC1 [Example 299, N-(2,2-Dimethyl-6-((3-methyloxetan-3-yl)methoxy)-2,3-dihydrobenzofuran-5-yl)pyrazolo[1,5-α]pyrimidine-3-carboxamide]
3 | 12 | C[C@@]1(O)COc2cc(N3CCC(n4ccnc4)CC3)c(NC(=O)c3cnn4cccnc34)cc2C1 [Example 429, (S)-N-(7-(4-(1H-imidazol-1-yl)piperidin-1-yl)-3-hydroxy-3-methylchroman-6-yl)pyrazolo[1,5-a]pyrimidine-3-carboxamide]
4 | 13 | CC(CC(C)(C)O)N1Cc2cc(NC(=O)c3cnn4cccnc34)c(N3CCOCC3)cc2C1=O (stereo in doubt) [Example 544, N-[2-[(1S)-3-hydroxy-1,3-dimethyl-butyl]-6-morpholino-1-oxo-isoindolin-5-yl]pyrazolo[1,5-a]pyrimidine-3-carboxamide]
5 | 690 | CC1(C)Cc2cc(NC(=O)c3cnn4cccnc34)c(N3CCCC(c4ncc[nH]4)C3)cc2O1 (stereo not shown) [Example 202, N-(6-(3-(1H-imidazol-2-yl)piperidin-1-yl)-2,2-dimethyl-2,3-dihydrobenzofuran-5-yl)pyrazolo[1,5-a]pyrimidine-3-carboxamide]
6 | 370 | CC1(C)CN(c2cc3c(cc2NC(=O)c2cnn4cccnc24)C[C@@](C)(CO)O3)CCO1 [Example 37, (S)—N-(6-(2,2-dimethylmorpholino)-2-(hydroxymethyl)-2-methyl-2,3-dihydrobenzofuran-5-yl)pyrazolo[1,5-a]pyrimidine-3-carboxamide]
7 | 4.7 | COc1cc2c(cc1NC(=O)c1cnn3ccc(N[C@@H]4CCCC[C@@H]4N)nc13)CC(C)(C)O2 [Example 451, 5-[[(1R,2S)-2-aminocyclohexyl]amino]-N-(6-methoxy-2,2-dimethyl-3H-benzofuran-5-yl)pyrazolo[1,5-a]pyrimidine-3-carboxamide]
8 | 73 | CC(C)(O)[C@]1(C)Cc2cc(NC(=O)c3cnn4cccnc34)c(O[C@H]3CC[C@@H](O)CC3)cc2O1 [Example 312, N-[(2S)-6-(cis-4-Hydroxycyclo-hexoxy)-2-(1-hydroxy-1-methyl-ethyl)-2-methyl-3H-benzofuran-5-yl]pyrazolo[1,5-a]pyrimidine-3-carboxamide]
9 | 6 | CC1(C)Cc2cc(NC(=O)c3cnn4cccnc34)c(O[C@H]3CCN(CC(N)=O)C3)cc2O1 [Example 447, (S)-N-(6-((1-(2-amino-2-oxoethyl)pyrrolidin-3-yl)oxy)-2,2-dimethyl-2,3-dihydrobenzofuran-5-yl)pyrazolo[1,5-a]pyrimidine-3-carboxamide]
10 | 33 | CC(C)(N)CN1CCN(c2cc3c(cc2NC(=O)c2cnn4cccnc24)CC(C)(C)O3)CC1 [Example 476, N-(6-(4-(2-amino-2-methylpropyl)piperazin-1-yl)-2,2-dimethyl-2,3-dihydrobenzofuran-5-yl)pyrazolo[1,5-a]pyrimidine-3-carboxamide]
11 | 20 | O=C(Nc1cc2c(cc1N1CCOCC1)OC1(CCNCC1)C2)c1cnn2cccnc12 [Example 142, N-(6-Morpholinospiro[3H-benzofuran-2,4′-piperidine]-5-yl)pyrazolo[1,5-a]pyrimidine-3-carboxamide]
12 | 890 | C[C@]1(CO)Cc2cc(NC(=O)c3cnn4cccnc34)c(N3C[C@@H]4[C@H](C3)[C@@H]4C(N)=O)cc2O1 [Example 348, N-((R)-6-((1R,5S,6S)-6-carbamoyl-3-azabicyclo[3.1.0]hexan-3-yl)-2-(hydroxymethyl)-2-methyl-2,3-dihydrobenzofuran-5-yl)pyrazolo[1,5-a]pyrimidine-3-carboxamide]
13 | 330 | CN1CCN(c2cc3c(cc2NC(=O)c2cnn4cccnc24)CC(C)(C)O3)CC(O)C1 (stereo not shown) [Example 224, N-[6-(6-hydroxy-4-methyl-1,4-diazepan-1-yl)-2,2-dimethyl-3H-benzofuran-5-yl]pyrazolo[1,5-a]pyrimidine-3-carboxamide]
14 | 34 | CN(C)C(=O)[C@@]1(C)Cc2cc(NC(=O)c3cnn4cccnc34)c(N3CCOCC3)cc2O1 [Example 439, (R)—N-(2-(dimethylcarbamoyl)-2-methyl-6-morpholino-2,3-dihydrobenzofuran-5-yl)pyrazolo[1,5-a]pyrimidine-3-carboxamide]
15 | 75 | CC(=O)N1CCCN(c2cc3c(cc2NC(=O)c2cnn4cccnc24)CC(C)(C)O3)CC1 [Example 220, N-(6-(4-acetyl-1,4-diazepan-1-yl)-2,2-dimethyl-2,3-dihydrobenzofuran-5-yl)pyrazolo[1,5-a]pyrimidine-3-carboxamide]
16 | 5.1 | CC1(CO)Cc2cc(NC(=O)c3cnn4cccnc34)c(N3CCC(F)(F)CC3)cc2O1 (stereo not shown) [Example 26, N-[6-(4,4-Difluoro-1-piperidyl)-2-(hydroxymethyl)-2-methyl-3H-benzofuran-5-yl]pyrazolo[1,5-a]pyrimidine-3-carboxamide]

Row | Ki [nM] | Structure (SMILES)
17 | 24 | C[C@]1(CO)Cc2cc(NC(=O)c3cnn4cccnc34)c(N3CCC(F)(F)C3)cc2O1 [Example 66, N-[(2R)-6-(3,3-Difluoropyrrolidin-1-yl)-2-(hydroxymethyl)-2-methyl-3H-benzofuran-5-yl]pyrazolo[1,5-a]pyrimidine-3-carboxamide]
18 | 64 | Cn1cc(-c2cc3c(cc2NC(=O)c2cnn4cccnc24)CC(C)(C)O3)cn1 [Example 404, N-(2,2-Dimethyl-6-(1-methyl-1H-pyrazol-4-yl)-2,3-dihydrobenzofuran-5-yl)pyrazolo[1,5-a]pyrimidine-3-carboxamide]
19 | 130 | CP(C)(=O)c1ccc(NC(=O)c2cnn3cccnc23)c(N2CCOCC2)c1 [Example 518, N-(4-dimethylphosphoryl-2-morpholino-phenyl)pyrazolo[1,5-a]pyrimidine-3-carboxamide]
20 | 100 | C[C@@]1(O)COc2cc(N3CCC([C@](C)(O)C(F)(F)F)CC3)c(NC(=O)c3cnn4cccnc34)cc2C1 [Example 421, N—((S)-3-hydroxy-3-methyl-7-(4-((S)-1,1,1-trifluoro-2-hydroxypropan-2-yl)piperidin-1-yl)chroman-6-yl)pyrazolo[1,5-a]pyrimidine-3-carboxamide]
21 | 5 | O=C(Nc1cc2c(cc1N1CCOCC1)C(=O)N(CCC1COC1)C2)c1cnn2cccnc12 [Example 252, N-[6-Morpholino-2-[2-(oxetan-3-yl)ethyl]-1-oxo-isoindolin-5-yl]pyrazolo[1,5-a]pyrimidine-3-carboxamide]
22 | 56 | CNC(=O)[C@H]1[C@@H]2CN(c3cc4c(cc3NC(=O)c3cnn5cccnc35)CC(C)(C)O4)C[C@@H]21 [Example 182, N-[2,2-dimethyl-6-[(1S,5R)-6-(methylcarbamoyl)-3-azabicyclo[3.1.0]hexan-3-yl]-3H-benzofuran-5-yl]pyrazolo[1,5-a]pyrimidine-3-carboxamide]
23 | 13 | CC1(C)Cc2cc(NC(=O)c3cnn4cccnc34)c(N3CCN(C4CCNC4=O)CC3)cc2O1 (stereo not shown) [Example 467, N-(2,2-dimethyl-6-(4-(2-oxopyrrolidin-3-yl)piperazin-1-yl)-2,3-dihydrobenzofuran-5-yl)pyrazolo[1,5-a]pyrimidine-3-carboxamide]
24 | 810 | CC1(C)Cc2cc(NC(=O)c3cnn4ccc(C[C@H]5CCNC5=O)nc34)c(C3CC3)cc2O1 [Example 514, (R)—N-(6-cyclopropyl-2,2-dimethyl-2,3-dihydrobenzofuran-5-yl)-5-((2-oxopyrrolidin-3-yl)methyl)pyrazolo[1,5-a]pyrimidine-3-carboxamide]
25 | 120 | COC1C2CCC1N(c1cc3c(cc1NC(=O)c1cnn4cccnc14)CC(C)(C)O3)C2 (stereo not shown) [Example 239, N-(6-(7-Methoxy-2-azabicyclo[2.2.1]heptan-2-yl)-2,2-dimethyl-2,3-dihydrobenzofuran-5-yl)pyrazolo[1,5-a]pyrimidine-3-carboxamide]
26 | 6.1 | O=C(Nc1cc2c(cc1N1CCOCC1)OC1(C2)CN(CC(F)(F)F)C1)c1cnn2cccnc12 [Example 148, N-[6-Morpholino-1′-(2,2,2-trifluoroethyl)spiro[3H-benzofuran-2,3′-azetidine]-5-yl]pyrazolo[1,5-a]pyrimidine-3-carboxamide]
27 | 29 | CC1(C)Cc2cc(NC(=O)c3cnn4cccnc34)c(OC[C@@H]3CCNC(=O)C3)cc2O1 [Example 305]
28 | 260 | C[C@]1(O)COc2cc(N3CCOCC3)c(NC(=O)c3cnn4cccnc34)cc2C1 (single isomer, unassigned) [Example 27]
29 | 6 | CC(C)(O)[C@@]1(C)Cc2cc(NC(=O)c3cnn4cccnc34)c(N3CCC(CO)CC3)cc2O1 [Example 355, (R)—N-(6-(4-(Hydroxymethyl)piperidin-1-yl)-2-(2-hydroxypropan-2-yl)-2-methyl-2,3-dihydrobenzofuran-5-yl)pyrazolo[1,5-a]pyrimidine-3-carboxamide]
30 | 12 | CC1(C)Cc2cc(NC(=O)c3cnn4cccnc34)c(N3CCN(CCN4CCCC4=O)CC3)cc2O1 [Example 470, N-(2,2-dimethyl-6-(4-(2-(2-oxopyrrolidin-1-yl)ethyl)piperazin-1-yl)-2,3-dihydrobenzofuran-5-yl)pyrazolo[1,5-a]pyrimidine-3-carboxamide]
31 | 4.7 | O=C(Nc1cc2c(cc1N1CCC(CO)CC1)OCCN2)c1cnn2cccnc12 [Example 1, N-(7-(4-(Hydroxymethyl)piperidin-1-yl)-3,4-dihydro-2H-benzo[b][1,4]oxazin-6-yl)pyrazolo[1,5-a]pyrimidine-3-carboxamide]
